Test results taken from patent publication US20240270713A1, “NOVEL COMPOUND EXHIBITING THERAPEUTIC EFFECT ON INFLAMMATORY DISEASE AS P38 MAP KINASE INHIBITOR” (PRAZERTHERAPEUTICS INC., priority 2021, published 2024).

Key:
IL-1β mRNA = assay: Cytokine mRNA expression inhibitory ability, IL-1β, LPS-treated BV2 cells; assay type: cell-based; details: 1 μM compound 24 hours, then 1000 ng/ml LPS 24 hours
Protocol: (§1) Evaluation of cytokine mRNA expression inhibitory ability by inflammatory response
(§2) In order to identify inhibition of p-p38 MAPK, the inhibition of p38 MAPK was identified by treating each compound to BV2 cells obtained by converting microglia that induces inflammation according to p-p38 MAPK activity in the brain into cancerous cells. Briefly, BV2 cells were cultured in Dulbecco's modified Eagle Medium supplemented with 10% fetal bovine serum and penicillin/streptomycin (100 U/ml). BV2 cells were treated with 1 μM of Compounds 4 to 6 according to the present disclosure in a culture dish respectively and cultured for 24 hours in a CO2 incubator, and then treated with 1000 ng/ml of LPS, followed by additional culture for 24 hours in a CO2 incubator.
(§3) After the cell culture was completed according to the experimental conditions, washing was performed with cold phosphate buffered saline (PBS). The cells were then collected and centrifuged at 1200 rpm for 3 minutes. RNA was extracted according to the method provided in the Hybrid-R total RNA purification kit (GeneAllR), 305-101). After measuring the concentration and purity of RNA using Nanodrop, cDNA was synthesized according to the method provided in TOPscript RT DryMIX (Enzynomics, RT200). […]

TNFα mRNA = assay: Cytokine mRNA expression inhibitory ability, TNFα, LPS-treated Raw264.7 cells; assay type: cell-based; details: 1 μM compound 24 hours, then 100 ng/ml LPS 24 hours
Protocol: Evaluation of cytokine mRNA expression inhibitory ability according to inflammatory response
(§4) In order to identify inhibition of p-p38 MAPK, inhibition of p38 MAPK was identified after treating each compound to Raw264.7 cells obtained by converting macrophages that induces inflammation according to p-p38 MAPK activity cancerous cells. Briefly, Raw264.7 cells were cultured in Dulbecco's modified Eagle Medium supplemented with 10% fetal bovine serum and penicillin/streptomycin (100 U/ml). Raw264.7 cells were treated with 1 μM of Compounds 1 to 5 according to the present disclosure in a culture dish respectively and cultured for 24 hours in a CO2 incubator, and then treated with 100 ng/ml of LPS, followed by additional culture for 24 hours in a CO2 incubator.
After cell culture was terminated according to the experimental conditions, cells were washed with cold phosphate buffered saline (PBS). The cells were then collected and centrifuged at 1200 rpm for 3 minutes. RNA was extracted according to the method provided in the Hybrid-R total RNA purification kit (GeneAll, 305-101). After measuring the concentration and purity of RNA using Nanodrop, cDNA was synthesized according to the method provided in TOPscript RT DryMIX (Enzynomics, RT200). After a reaction at 95° C. for 3 minutes using SYBR Green Mix along with primer, cDNA was subjected to repetitive reactions 30 times at 95° C. for 10 seconds, at 55° C. for 10 seconds, and at 72° C. for 30 seconds to determine the RNA expression level. The results are shown in Tables 5 and 6 below and FIGS. 1 and 2.

IL-6 mRNA = assay: Cytokine mRNA expression inhibitory ability, IL-6, LPS-treated BV2 cells; assay type: cell-based; details: 1 μM compound 24 hours, then 1000 ng/ml LPS 24 hours
Protocol: as §1, §2, §3

p-p38 MAPK = p-p38 MAPK (Mus musculus (Mouse), UniProt P47811); assay: p38 MAPK protein inhibitory ability in cells (p-p38 immunoblot, LPS-treated Raw264.7); assay type: cell-based; details: Raw264.7 cells, 1 μM compound 24 hours, then 100 ng/ml LPS 6 hours
Protocol: Evaluation of p38 MAPK protein inhibitory ability in cells
as §4, with “Raw264.7 cells which are obtained by” for “Raw264.7 cells obtained by”, “MAPK activity into cancerous cells.” for “MAPK activity cancerous cells.”, “culture for 6 hours in” for “culture for 24 hours in”
After cell culture was terminated according to the experimental conditions, cells were washed with cold phosphate buffered saline (PBS). The cells were then collected and centrifuged at 1200 rpm for 3 minutes. The pellet was lysed with 2X sample buffer (1M Tris-HCl pH 6.8, 50% glycerol, 10% SDS, 2-mercaptoethanol, 1% bromophenol blue) and boiled at 100° C. for 10 minutes. The prepared protein samples were subjected to sodium dodecyl sulfate poly acrylamide gel electrophoresis and transferred to PVDF membrane (Millipore). For a specific binding reaction between the protein in the PVDF membrane and antibody, blocking was performed in a 5% bovine serum albumin (BSA, RMbio) solution. Subsequently, the BSA solution was discarded, and the membrane was washed with PBS-T (0.5% Tween 20 in PBS). The binding reaction of the protein in the membrane and antibody was performed overnight at 4° C. and washed again with PBS-T. Finally, a secondary antibody (Cell signaling Technology) conjugated with horse radish peroxidase (HRP) was diluted in PBS-T and reacted at room temperature for 2 hours. Luminata Forte HRP substrate (Millipore) was used to determine the amount of protein in the membrane, the results of which are shown in Table 4 below.

p38 alpha = p38 alpha (Homo sapiens (Human), UniProt Q16539); assay: p38α MAPK inhibitory ability (peptide/kinase mixture, development reagent, 445/520 nm); assay type: biochemical; details: 1 hour at room temperature
Protocol: Evaluation of p38a mitogen-activated protein kinase (MAPK) inhibitory ability
To determine the ability to inhibit p38 MAPK, Compounds 1 to 5 were diluted to determine the inhibitory effect depending on a concentration. Briefly, the compounds were diluted at concentrations of 1000, 333, 111, 37.0, 12.3, 4.12, 1.37, 0.457, 0.152, and 0.0495 nM, respectively, and then a peptide/kinase mixture (final 7.07-28.3 ng p38 alpha, 2 μM serine/threonine 15, 50 mM HEPES pH 7.0, 0.01% NaN3) and ATP solution were added respectively. After reacting at room temperature for 1 hour, a development reagent was added, followed by a reaction again at room temperature for 1 hour.

p-p38 MAPK, sequence (P47811 whole entry): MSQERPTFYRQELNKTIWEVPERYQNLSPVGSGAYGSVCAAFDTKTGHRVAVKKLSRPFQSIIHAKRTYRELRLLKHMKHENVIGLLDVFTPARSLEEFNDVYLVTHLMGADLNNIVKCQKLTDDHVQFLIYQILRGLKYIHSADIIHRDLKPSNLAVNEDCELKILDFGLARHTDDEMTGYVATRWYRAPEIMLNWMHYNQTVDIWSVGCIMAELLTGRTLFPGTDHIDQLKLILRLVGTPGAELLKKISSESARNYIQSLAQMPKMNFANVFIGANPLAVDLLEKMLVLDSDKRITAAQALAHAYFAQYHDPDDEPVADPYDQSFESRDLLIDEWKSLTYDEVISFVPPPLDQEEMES
p38 alpha, sequence (Q16539 whole entry): as the sequence (P47811 whole entry) above, with H48L, A263T counted along it

## Cc1c(F)cc(C(=O)NC2CC2)cc1-c1ccc(C(=O)c2c[nH]c3ccccc23)cn1 [Compound 4, 3-(5-(1H-indole-3-carbonyl)pyridin-2-yl)-N-cyclopropyl-5-fluoro-4-methylbenzamide]
IL-1β mRNA
  IL-1β mRNA inhibition: 68.5%
TNFα mRNA
  TNFα mRNA inhibition: 51.5%
IL-6 mRNA
  IL-6 mRNA inhibition: 52.8%
p-p38 MAPK
  inhibition at 1 µM: 68%
p38 alpha
  IC50: 18.8 nM
